Where two headings read alike, the source gives them in different places.
Experiments:
Assay type in all cases: in vivo, human
[1] = Phase I study, pharmacokinetic parameters after oral single dose and daily dose for 7 days; details: for AUC(0-t) / Cmax at 7 days / Tmax at 7 days / half-life at 7 days / Cmax / Tmax / half-life: human, oral; for AUC(0-t): po, read-out: AUC 0-t area under the curve, between time 0 and the last measurable concentration; for Cmax at 7 days / Cmax: read-out: Cmax maximum concentration; for Tmax at 7 days / Tmax: read-out: Tmax time required to attain maximum concentration
Procedure: The doses tested were 10, 20, 40 and 80 mg of tenatoprazole.
In this table, the abbreviations employed have the following meaning:
Cmax maximum concentration
Tmax time required to attain maximum concentration
T1/2 elimination half-life
AUC0-t area under the curve, between time 0 and the last measurable concentration.
The AUC0-inf value was calculated by extrapolation.

[2] = test system: patients suffering from erosive and/or ulcerative type reflux esophagitis; assay: Open-labeled studies in reflux esophagitis: improvement rating of subjective and objective symptoms; details: 10 mg tablet orally once a day
Procedure: Two open-labeled studies have been conducted in order to evaluate the efficacy and safety of tenatoprazole for gastroesophageal reflux disease. 22 patients in the first study and 24 patients in the second study, of more than 20 years of age, suffering from erosive and/or ulcerative type reflux esophagitis (diagnosed by endoscopy), received tablets containing enteric-coated granules with 10 mg of tenatoprazole.
[…] […], or at the withdrawal from the study, the disease stages were evaluated according to the Savary and Miller classification and the treatment was stopped when healing was confirmed. The condition was evaluated as healed when disappearance of erosion was confirmed.

[3] = test system: patients with gastroesophageal reflux symptoms; assay: Clinical treatment of patients with gastroesophageal reflux symptoms; details: 20 mg tablet daily;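 as to Evolution of symptom: one to three plus signs grade improvement from moderate to highly favorable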
Procedure: Some clinical examples are given below, which show the effects of treatment on patients suffering from gastroesophageal reflux or dyspepsia, treated by the oral administration of tenatoprazole.
Treatment consisted in the daily administration of a tablet containing 20 mg tenatoprazole.

[4] = in vivo, repeated dose (7 days) 10 mg daily
[5] = in vivo, repeated dose (7 days) 20 mg daily
[6] = in vivo, repeated dose (7 days) 40 mg daily
[7] = in vivo, repeated dose (7 days) 80 mg daily

Question: Which results are given for COc1ccc2[nH]c([S+]([O-])Cc3ncc(C)c(OC)c3C)nc2n1 (stereo not drawn) [tenatoprazole, 5-methoxy-2-[[(4-methoxy-3,5-dimethyl-2-pyridyl)methyl]sulfinyl]imidazo[4,5-b]pyridine]?
Answer: AUC(0-t) ([1]; in vivo, 10 mg, repeated dose (7 days) 10 mg daily): 13000 ng·h/mL; AUC(0-t) ([1]; in vivo, 10 mg, single dose 10 mg): 8000 ng·h/mL; AUC(0-t) ([1]; in vivo, 20 mg, repeated dose (7 days) 20 mg daily): 36000 ng·h/mL; AUC(0-t) ([1]; in vivo, 20 mg, single dose 20 mg): 24000 ng·h/mL; AUC(0-t) ([1]; in vivo, 40 mg, repeated dose (7 days) 40 mg daily): 75000 ng·h/mL; AUC(0-t) ([1]; in vivo, 40 mg, single dose 40 mg): 43000 ng·h/mL; AUC(0-t) ([1]; in vivo, 80 mg, repeated dose (7 days) 80 mg daily): 218000 ng·h/mL; AUC(0-t) ([1]; in vivo, 80 mg, single dose 80 mg): 97000 ng·h/mL; Cmax at 7 days [1, 4]: 1600 ng/mL; Tmax at 7 days [1, 4]: 3 h; half-life at 7 days ([1]; in vivo, repeated dose (7 days) 10 mg daily, read-out: T½ elimination half-life (converted)): 5 h; Cmax at 7 days [1, 5]: 3000 ng/mL; Tmax at 7 days [1, 5]: 2 h; half-life at 7 days ([1]; in vivo, repeated dose (7 days) 20 mg daily, read-out: T½ elimination half-life (converted)): 8 h; Cmax at 7 days [1, 6]: 5500 ng/mL; Tmax at 7 days [1, 6]: 3 h; half-life at 7 days ([1]; in vivo, repeated dose (7 days) 40 mg daily, read-out: T½ elimination half-life (converted)): 9 h; Cmax at 7 days [1, 7]: 11800 ng/mL; Tmax at 7 days [1, 7]: 2 h; half-life at 7 days ([1]; in vivo, repeated dose (7 days) 80 mg daily, read-out: T½ elimination half-life (converted)): 9.2 h; Cmax ([1]; in vivo, single dose 10 mg): 900 ng/mL; Tmax ([1]; in vivo, single dose 10 mg): 4 h; half-life ([1]; in vivo, single dose 10 mg, read-out: T½ elimination half-life (converted)): 5 h; Cmax ([1]; in vivo, single dose 20 mg): 2400 ng/mL; Tmax ([1]; in vivo, single dose 20 mg): 4 h; Cmax ([1]; in vivo, single dose 40 mg): 5300 ng/mL; Tmax ([1]; in vivo, single dose 40 mg): 3 h; half-life ([1]; in vivo, single dose 40 mg, read-out: T½ elimination half-life (converted)): 6 h; Cmax ([1]; in vivo, single dose 80 mg): 8300 ng/mL; Tmax ([1]; in vivo, single dose 80 mg): 3 h; half-life ([1]; in vivo, single dose 80 mg, read-out: T½ elimination half-life (converted)): 7 h; half-life ([1]; plasma, after a single dose, depending on the dose (10-80 mg), read-out: mean elimination half-lives): 5 to 6 h; half-life at 7 days ([1]; plasma, after administration for seven days, depending on the dose (10-80 mg), read-out: mean elimination half-lives): 5 to 9.5 h; half-life compared with other proton pump inhibitors (omeprazole, esomeprazole) ([1]; in vivo): some seven times longer; dose dependence of Cmax, AUC0-t and AUC0-inf ([1]; single or repeated administration, 10-80 mg): increased in a linear fashion; Improvement rating of symptoms, patients rated A markedly improved ([2]; 1st study, 1 week): 16; Improvement rating of symptoms, patients rated B moderately improved ([2]; 1st study, 1 week): 6; Improvement rating of symptoms, patients rated C slightly improved ([2]; 1st study, 1 week): 0; Improvement rating of symptoms, patients rated D not changed ([2]; 1st study, 1 week): 3; Improvement rating of symptoms, patients rated E aggravated ([2]; 1st study, 1 week): 0; Improvement rating of symptoms, patients rated A markedly improved ([2]; 1st study, 2 weeks): 21; Improvement rating of symptoms, patients rated B moderately improved ([2]; 1st study, 2 weeks): 1; Improvement rating of symptoms, patients rated C slightly improved ([2]; 1st study, 2 weeks): 0; Improvement rating of symptoms, patients rated D not changed ([2]; 1st study, 2 weeks): 1; Improvement rating of symptoms, patients rated E aggravated ([2]; 1st study, 2 weeks): 0; Improvement rating of symptoms, patients rated A markedly improved ([2]; 1st study, 4 weeks): 23; Improvement rating of symptoms, patients rated B moderately improved ([2]; 1st study, 4 weeks): 0; Improvement rating of symptoms, patients rated C slightly improved ([2]; 1st study, 4 weeks): 1; Improvement rating of symptoms, patients rated D not changed ([2]; 1st study, 4 weeks): 0; Improvement rating of symptoms, patients rated E aggravated ([2]; 1st study, 4 weeks): 0; Improvement rating of symptoms, patients rated A markedly improved ([2]; 1st study, 6 weeks): 10; Improvement rating of symptoms, patients rated B moderately improved ([2]; 1st study, 6 weeks): 0; Improvement rating of symptoms, patients rated C slightly improved ([2]; 1st study, 6 weeks): 1; Improvement rating of symptoms, patients rated D not changed ([2]; 1st study, 6 weeks): 0; Improvement rating of symptoms, patients rated E aggravated ([2]; 1st study, 6 weeks): 0; Improvement rating of symptoms, patients rated A markedly improved ([2]; 1st study, 8 weeks): 9; Improvement rating of symptoms, patients rated B moderately improved ([2]; 1st study, 8 weeks): 0; Improvement rating of symptoms, patients rated C slightly improved ([2]; 1st study, 8 weeks): 1; Improvement rating of symptoms, patients rated D not changed ([2]; 1st study, 8 weeks): 0; Improvement rating of symptoms, patients rated E aggravated ([2]; 1st study, 8 weeks): 0; Improvement rating of symptoms, patients rated A markedly improved ([2]; 1st study, 10 weeks): 2; Improvement rating of symptoms, patients rated B moderately improved ([2]; 1st study, 10 weeks): 0; Improvement rating of symptoms, patients rated C slightly improved ([2]; 1st study, 10 weeks): 0; Improvement rating of symptoms, patients rated D not changed ([2]; 1st study, 10 weeks): 0; Improvement rating of symptoms, patients rated E aggravated ([2]; 1st study, 10 weeks): 0; Improvement rating of symptoms, patients rated A markedly improved ([2]; 1st study, final): 21; Improvement rating of symptoms, patients rated B moderately improved ([2]; 1st study, final): 0; Improvement rating of symptoms, patients rated C slightly improved ([2]; 1st study, final): 1; Improvement rating of symptoms, patients rated D not changed ([2]; 1st study, final): 0; Improvement rating of symptoms, patients rated E aggravated ([2]; 1st study, final): 0; Improvement rating of symptoms, patients rated A markedly improved ([2]; 2nd study, 1 week): 19; Improvement rating of symptoms, patients rated B moderately improved ([2]; 2nd study, 1 week): 2; Improvement rating of symptoms, patients rated C slightly improved ([2]; 2nd study, 1 week): 1; Improvement rating of symptoms, patients rated D not changed ([2]; 2nd study, 1 week): 1; Improvement rating of symptoms, patients rated E aggravated ([2]; 2nd study, 1 week): 0; Improvement rating of symptoms, patients rated A markedly improved ([2]; 2nd study, 2 weeks): 21; Improvement rating of symptoms, patients rated B moderately improved ([2]; 2nd study, 2 weeks): 1; Improvement rating of symptoms, patients rated C slightly improved ([2]; 2nd study, 2 weeks): 1; Improvement rating of symptoms, patients rated D not changed ([2]; 2nd study, 2 weeks): 0; Improvement rating of symptoms, patients rated E aggravated ([2]; 2nd study, 2 weeks): 0; Improvement rating of symptoms, patients rated A markedly improved ([2]; 2nd study, 4 weeks): 20; Improvement rating of symptoms, patients rated B moderately improved ([2]; 2nd study, 4 weeks): 1; Improvement rating of symptoms, patients rated C slightly improved ([2]; 2nd study, 4 weeks): 1; Improvement rating of symptoms, patients rated D not changed ([2]; 2nd study, 4 weeks): 0; Improvement rating of symptoms, patients rated E aggravated ([2]; 2nd study, 4 weeks): 0; Improvement rating of symptoms, patients rated A markedly improved ([2]; 2nd study, 6 weeks): 10; Improvement rating of symptoms, patients rated B moderately improved ([2]; 2nd study, 6 weeks): 0; Improvement rating of symptoms, patients rated C slightly improved ([2]; 2nd study, 6 weeks): 1; Improvement rating of symptoms, patients rated D not changed ([2]; 2nd study, 6 weeks): 0; Improvement rating of symptoms, patients rated E aggravated ([2]; 2nd study, 6 weeks): 0; Improvement rating of symptoms, patients rated A markedly improved ([2]; 2nd study, 8 weeks): 10; Improvement rating of symptoms, patients rated B moderately improved ([2]; 2nd study, 8 weeks): 1; Improvement rating of symptoms, patients rated C slightly improved ([2]; 2nd study, 8 weeks): 0; Improvement rating of symptoms, patients rated D not changed ([2]; 2nd study, 8 weeks): 0; Improvement rating of symptoms, patients rated E aggravated ([2]; 2nd study, 8 weeks): 0; Improvement rating of symptoms, patients rated A markedly improved ([2]; 2nd study, 10 weeks): 0; Improvement rating of symptoms, patients rated B moderately improved ([2]; 2nd study, 10 weeks): 1; Improvement rating of symptoms, patients rated C slightly improved ([2]; 2nd study, 10 weeks): 0; Improvement rating of symptoms, patients rated D not changed ([2]; 2nd study, 10 weeks): 0; Improvement rating of symptoms, patients rated E aggravated ([2]; 2nd study, 10 weeks): 0; Improvement rating of symptoms, patients rated A markedly improved ([2]; 2nd study, 12 weeks): 0; Improvement rating of symptoms, patients rated B moderately improved ([2]; 2nd study, 12 weeks): 1; Improvement rating of symptoms, patients rated C slightly improved ([2]; 2nd study, 12 weeks): 0; Improvement rating of symptoms, patients rated D not changed ([2]; 2nd study, 12 weeks): 0; Improvement rating of symptoms, patients rated E aggravated ([2]; 2nd study, 12 weeks): 0; Improvement rating of symptoms, patients rated A markedly improved ([2]; 2nd study, final): 19; Improvement rating of symptoms, patients rated B moderately improved ([2]; 2nd study, final): 2; Improvement rating of symptoms, patients rated C slightly improved ([2]; 2nd study, final): 0; Improvement rating of symptoms, patients rated D not changed ([2]; 2nd study, final): 0; Improvement rating of symptoms, patients rated E aggravated ([2]; 2nd study, final): 0; cases in which treatment was perfectly tolerated ([3]; patients of Table 2): 12 out of 14; evolution observed in symptoms, overall ([3]; patients of Table 2): generally very favorable; Evolution of symptom ([3]; patient 25, heartburn, 12 weeks): +++; Evolution of symptom ([3]; patient 28, nocturnal heartburn, 4 weeks): +++; Evolution of symptom ([3]; patient 30, nocturnal heartburn, 8 weeks): +++; Evolution of symptom ([3]; patient 34, heartburn, 8 weeks): +++; Evolution of symptom ([3]; patient 35, nocturnal heartburn, 4 weeks): ++; Evolution of symptom ([3]; patient 36, regurgitation, 8 weeks): +++; Evolution of symptom ([3]; patient 38, heartburn, 8 weeks): +++; Evolution of symptom ([3]; patient 38, nocturnal heartburn, 8 weeks): +++; Evolution of symptom ([3]; patient 39, nocturnal heartburn, 4 weeks): +; Evolution of symptom ([3]; patient 41, heartburn, 8 weeks): +++; Evolution of symptom ([3]; patient 42, heartburn, 8 weeks): ++; Evolution of symptom ([3]; patient 45, nocturnal heartburn, 8 weeks): +++; Evolution of symptom ([3]; patient 47, nocturnal heartburn, 8 weeks): ++; Evolution of symptom ([3]; patient 49, regurgitation, 8 weeks): ++

— patent publication US20110152314A1, “USE OF TENATOPRAZOLE FOR THE TREATMENT OF GASTROESOPHAGEAL REFLUX DISEASE” (SIDEM PHARMA, priority 2002, published 2011)
